Measurements as given in patent US20220226343A1, “3-AMINO-4-[4-[4 (DIMETHYLCARBAMOYL) PHENYL]-1,4-DIAZEPAN-1-YL]THIENO[2,3-B]PYRIDINE-2-CARBOXAMIDE FOR USE IN CANCER THERAPY AND FORMULATIONS COMPRISING THE SAME” (University of South Carolina, priority 2019, published 2022).
Where two headings read alike, the source gives them in different places.

Tests used:
[1] = test system: alkaline phosphatase (ALPase); details: concentration that enhances ALPase activity to 200% of control, ST2 cells; cited from earlier work
[2] = Oral PK, male Cynomolgus monkeys 25 mg/kg; details: Liquid formulation 2, oral 25 mg/kg
CDK8/19 = experiment: NFκB reporter assay in parental 293 reporter cells; format: cell-based
Description: We have used a cell-based assay to measure the inhibition of CDK8/19 activity by thienopyridine derivatives. This assay, based on the role of CDK8/19 in NFκB-driven transcription (Chen, 2017), measures the effects of CDK8/19 on the expression of firefly luciferase reporter from a NFκB-dependent promoter in 293 cells. Lentiviral vector pHAGE-NFKB-TA-LUC-UBC-dTomato-W (Addgene #49335) was introduced into 293 cells and a clonal cell line showing the strongest induction of luciferase expression upon TNFα treatment was established and used as the reporter cell line. As a control for CDK8/19 dependence of NFκB inhibition, we have also introduced the same reporter construct into 293 cells with CRISPR/CAS9 knockout of both CDK8 and CDK19.
FIG. 2C and Table 1 compares the IC50 values for different thienopyridines measured in the NFκB reporter assay in parental 293-derived reporter cell line to the cell-based activity values measured for the same compounds by Saito (2013) based on their effect on alkaline phosphatase (ALPase), an indicator of differentiation to osteoblasts in the mouse bone marrow stromal cell line ST2. The latter effects are expressed as EC200, a concentration that enhances ALPase activity to 200% of control.

[3] = test system: CRPC cell line 22rv1 xenograft
[4] = Oral PK by formulation, male CD-1 mice 30 mg/kg; format: in vivo, mouse; details: for Elimination rate k: male CD-1
[5] = MTD, medicated diet 4 or 5 weeks, CD-1 mice; format: in vivo, mouse; details: female CD-1 mice, 1000 ppm medicated diet, first week
Method: In another long-term MTD in vivo assay, groups of male and female CD-1 mice were fed regular diet (control) or 15u-medicated diet (500 ppm or 1000 ppm) for 4 or 5 weeks (FIG. 16B). The daily doses of 500 ppm and 1000 ppm groups were estimated to be about 50-100 mg/kg and 100-200 mg/kg, respectively, based on daily diet consumption.

[6] = Oral PK by formulation, male FVB mice 50 mg/kg; details: for Elimination rate k: male FVB
[7] = Maximum solubility of 15u in individual excipients; format: physicochemical; set-up: key to XRPD Pattern (API = A): API = A
Method: The binary mixtures were incubated on a shaker with temperature control either at 25° C. or 40° C. for at least 48 hours. The mixtures were filtered with 0.45 μm filters to separate the solid and liquid portions. PLC was performed on the on the liquid portion to determine the maximum solubility. XRPD was performed on the collected solid to check polymorph change.

[8] = 50 mg/kg orally daily, castrated male nude mice

## CN(C)C(=O)c1ccc(N2CCCN(c3ccnc4sc(C(N)=O)c(N)c34)CC2)cc1 [Compound 15u, 3-amino-4-(4-(4-(dimethylcarbamoyl)phenyl)-1,4-diazepan-1-yl)thieno[2,3-b]pyridine-2-carboxamide]
[1]
  ALP activity Assay EC200: 31.9 nM
[2]
  adverse effects: no adverse effects were observed
CDK8/19; NFκB Activity Assay as described in Example 1, read-out: Inhibition Potency HEK293-NFkB-Luc Assay
  IC50: 0.0103 µM
CDK8/19; parental 293-derived reporter cell line, read-out: NFκB activity Assay IC50
  IC50: 0.01 µM
[3]; 50 mg/kg once a day, 25 mg/kg twice a day, 50 mg/kg twice a day
  22rv1 tumor growth over the long term: drastically inhibited 22rv1 tumor growth
[3]; [8]
  22rv1 xenograft tumor growth: strongly suppressed the tumor growth
  adverse effects and mouse body weight: no apparent adverse effects and no diminution of mouse body weight
[4]; LF-V#2, oral 30 mg/kg
  Elimination rate k: 0.22 h⁻¹
[4]; Sus-V#1, oral 30 mg/kg
  Elimination rate k: 0.37 h⁻¹
[4]; Sus-V#2, oral 30 mg/kg
  Elimination rate k: 0.38 h⁻¹
[4]; oral 30 mg/kg, male CD-1 mice
  increase of AUC, Liquid formulation 2 vs both suspension vehicles: 2-3 fold
  increase of t1/2, Liquid formulation 2 vs both suspension vehicles: ~1.7 fold
[5]
  weight loss: 5-10%
[6]; LF-V#1, oral 50 mg/kg
  Elimination rate k: 0.13 h⁻¹
[6]; Sus-V#1, oral 50 mg/kg
  Elimination rate k: 0.25 h⁻¹
[6]; oral 50 mg/kg, male FVB mice
  increase of AUC, Liquid formulation 1 vs Suspension Vehicle 1: 2.3 fold
  increase of t1/2, Liquid formulation 1 vs Suspension Vehicle 1: ~2 fold
[7]; Capryol 90
  Maximum Solubility: 2.9 mg/g
[7]; Crodamol GMCC SS
  Maximum Solubility: 5.5 mg/g
[7]; Gelucire 44/14
  Maximum Solubility: 3.4 mg/g
[7]; Kolliphor EL
  Maximum Solubility: 1.3 mg/g
[7]; Labrafac PG
  Maximum Solubility: 0.0 mg/g
[7]; Labrafil M2125CS
  Maximum Solubility: 0.4 mg/g
[7]; Labrasol
  Maximum Solubility: 5.4 mg/g
[7]; Lecithin
  Maximum Solubility: 1.9 mg/g
[7]; Maisine CC
  Maximum Solubility: 2.4 mg/g
[7]; Miglyol 812N
  Maximum Solubility: 0.0 mg/g
[7]; Oleic Acid
  Maximum Solubility: 0.8 mg/g
[7]; Olive Oil
  Maximum Solubility: 0.0 mg/g
[7]; PEG 300
  Maximum Solubility: 19.8 mg/g
[7]; PEG 400
  Maximum Solubility: 11.8 mg/g
[7]; PEG 600
  Maximum Solubility: 18.3 mg/g
[7]; Peceol
  Maximum Solubility: 2.5 mg/g
[7]; Sesame Oil
  Maximum Solubility: 0.0 mg/g
[7]; Span 20
  Maximum Solubility: 8.0 mg/g
[7]; Span 80
  Maximum Solubility: 1.4 mg/g
[7]; Transcutol HP
  Maximum Solubility: 3.4 mg/g
[7]; Tween 80
  Maximum Solubility: 1.9 mg/g
[7]; Vitamin E TPGS
  Maximum Solubility: 14.6 mg/g
[7]; solid collected from Capryol 90
  XRPD Pattern (API = A): A
[7]; solid collected from Crodamol GMCC SS
  XRPD Pattern (API = A): A
[7]; solid collected from Kolliphor EL
  XRPD Pattern (API = A): A
[7]; solid collected from Labrafac PG
  XRPD Pattern (API = A): A
[7]; solid collected from Labrafil M2125CS
  XRPD Pattern (API = A): A
[7]; solid collected from Labrasol
  XRPD Pattern (API = A): A
[7]; solid collected from Lecithin
  XRPD Pattern (API = A): A
[7]; solid collected from Maisine CC
  XRPD Pattern (API = A): A
[7]; solid collected from Miglyol 812N
  XRPD Pattern (API = A): A
[7]; solid collected from Oleic Acid
  XRPD Pattern (API = A): A
[7]; solid collected from Olive Oil
  XRPD Pattern (API = A): A
[7]; solid collected from PEG 300
  XRPD Pattern (API = A): A
[7]; solid collected from PEG 400
  XRPD Pattern (API = A): A
[7]; solid collected from PEG 600
  XRPD Pattern (API = A): A
[7]; solid collected from Peceol
  XRPD Pattern (API = A): A
[7]; solid collected from Sesame Oil
  XRPD Pattern (API = A): A
[7]; solid collected from Span 20
  XRPD Pattern (API = A): A
[7]; solid collected from Span 80
  XRPD Pattern (API = A): A
[7]; solid collected from Tween 80
  XRPD Pattern (API = A): A
